Measurements as given in patent US12679878B2, “CRF2 receptor agonists and their use in therapy” (SANOFI, priority 2020, dated 2026).
In brackets after ≈: the same amount, converted by molar mass. Like-named read-outs stand apart in the source and are kept apart here. Starred links: 1 amine or outer side, 2 acyl side, 3 side chain; linkers in the order of their positions; H or OH if unused. Non-standard residues stand in square brackets, D forms with d. Residues, ends and D or L forms follow the SMILES beside them. Groups on a side chain read outwards from the residue. *: point of attachment. C20 diacid = O=C(O)CCCCCCCCCCCCCCCCCCC(=O)*; C18 diacid = O=C(O)CCCCCCCCCCCCCCCCC(=O)*; γGlu = O=C(O)[C@H](CCC(=O)[*:2])N[*:1]; AEEA = NCCOCCOCC(=O)O; Aib = CC(C)(N)C(=O)O

What was measured:
rat CRF2R α receptor = experiment: cAMP agonism at rat CRF2R α receptor in A7R5 rat aortic smooth muscle cells (Example 8); format: cell-based; settings: cAMP HTRF, A7R5 rat aortic smooth muscle cell line, 0% HSA
How it was run: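 Potency (EC50) is the concentration reaching half-maximal activation, with responses scaled so that 1000 nM urocortin 2 equals 100%. Intracellular cAMP was quantified by homogeneous time-resolved fluorescence at 665/620 nm, 1 h after lysis-buffer reagents. Compound stimulation lasted 30 min at room temperature on 2000 IBMX-treated (2 mM) cells per well in HEPES-buffered HBSS.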

human CRF2α receptor = biological target: T1, human CRF2α receptor (Homo sapiens, UniProt Q13324); experiment: cAMP agonism at human CRF2 α receptor in TeloHEAC cells (Example 7); format: cell-based; settings: cAMP HTRF, TeloHEAC cells stably expressing human CRF2 α
T1 construct: expressed in transfected cells; host or cells: TeloHEAC
T1 sequence (Q13324 1-411): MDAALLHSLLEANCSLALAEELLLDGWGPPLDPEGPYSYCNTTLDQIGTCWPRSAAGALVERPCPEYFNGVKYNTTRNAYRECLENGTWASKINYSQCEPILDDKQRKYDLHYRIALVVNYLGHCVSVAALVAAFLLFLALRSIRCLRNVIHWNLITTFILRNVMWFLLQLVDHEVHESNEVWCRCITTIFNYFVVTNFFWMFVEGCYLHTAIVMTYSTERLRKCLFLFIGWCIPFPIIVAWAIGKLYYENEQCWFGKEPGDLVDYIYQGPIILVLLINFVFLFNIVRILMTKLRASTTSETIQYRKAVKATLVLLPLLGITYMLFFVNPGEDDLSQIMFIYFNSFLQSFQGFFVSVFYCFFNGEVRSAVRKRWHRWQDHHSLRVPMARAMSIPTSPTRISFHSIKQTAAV
How it was run: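 Steps: thaw and wash cells; suspend in 1×HBSS, 20 mM HEPES, 0 or 0.1% HSA, 2 mM IBMX; add compound, 30 min RT; lyse with HTRF reagents, 1 h; read 665/620 nm. EC50 calculated, E% versus 1000 nM UCN2.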

endogenous human CRF2 = biological target: T2, endogenous human CRF2 (Homo sapiens, UniProt Q13324); experiment: cAMP agonist effect in NCI-H82 cells expressing endogenous human CRF2 (Example 10); format: cell-based; settings: cAMP HTRF, 5 min activation
T2 construct: endogenous in cells; host or cells: NCI-H82
T2 sequence (Q13324 1-411): T1 sequence (Q13324 1-411)
Method: The agonist effect of the compounds was assessed in NCI-H82 cells expressing endogenous human CRF2.
NCI-H82 cells in suspension were plated in low-volume 384-well plates at a density of 30000 cells/well in 5 μl of test medium (RPMI+1 mM IBMX). The plates were briefly centrifuged at 800 rpm to allow the cell suspension to move to the bottom of the wells and then incubated for 2 hours at 37° C. in 5% CO2. 5 μl of test compounds at appropriate concentrations (10-11 to 3×10-7) diluted in test medium were then transferred in 384 wells plates. After 5 min of activation, the reaction was stopped by addition of HTRF revelation reagents with a multidrop dispenser. The two reagents were 5 μl/well of Anti-CAMP-cryptate diluted 20-fold in conjugate and lysis buffer and 5 μl/well of cAMP-D2 diluted 20-fold in conjugate and lysis buffer. After one-hour incubation at room temperature in the dark, the plates were read on a Clariostar apparatus.

[1] = Solubility in buffer systems by UPLC-UV (Example 13); format: physicochemical
How it was run: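 Quantitation used UV peak area from UPLC of the 1:10-diluted supernatant, set against a reference-compound standard curve with extinction coefficients adjusted for amino acid sequence.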

CRF1R receptor = biological target: T3, CRF1R receptor (Homo sapiens, UniProt P34998); experiment: cAMP activity at anti-target CRF1R, CRF1R-overexpression CHO cell line (Example 9); format: cell-based; settings: CRF1R-overexpression CHO cell line; for EC50: 0% HSA; for Emax: read-out: Emax (%)
T3 construct: host or cells: CHO-K1 clone 2
T3 sequence (P34998 24-415): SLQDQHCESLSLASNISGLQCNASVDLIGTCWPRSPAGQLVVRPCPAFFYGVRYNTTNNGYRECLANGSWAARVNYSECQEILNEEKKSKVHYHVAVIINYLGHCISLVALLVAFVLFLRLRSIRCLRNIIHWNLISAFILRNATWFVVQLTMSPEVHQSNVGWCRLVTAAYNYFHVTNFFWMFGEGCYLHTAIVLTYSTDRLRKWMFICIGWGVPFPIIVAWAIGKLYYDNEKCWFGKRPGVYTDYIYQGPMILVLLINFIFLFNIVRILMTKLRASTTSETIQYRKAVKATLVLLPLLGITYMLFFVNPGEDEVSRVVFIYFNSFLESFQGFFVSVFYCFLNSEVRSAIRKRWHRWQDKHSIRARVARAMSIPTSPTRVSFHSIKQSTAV
How it was run: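 Using thawed CRF1R-overexpressing CHO cells at 2000 per well, compound is applied for 30 min at RT in HBSS/HEPES buffer with IBMX. Cellular cAMP content is determined via HTRF, and percent activity is calculated against 1000 nM UCN2 defined as 100%.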

[2] = Chemical stability, purity loss by UPLC-UV after 28 days at 40° C. vs 5° C., pH 4.5 acetate buffer (Example 12); format: physicochemical; settings: 28 days 40° C. vs 5° C.; pH 4.5, 20 mM acetate buffer; 300 μM
How it was run: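 300 μM compound (purity-corrected) in 20 mM acetate buffer, pH 4.5, stored 28 days at 5 and 40° C. Purity by UPLC-UV as compound peak area over total peak area. Value is the purity difference between 5° C. and 40° C. samples, relative to the 5° C. purity, in percent.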

[3] = Physical stability, Thioflavin T fibrillation assay (Example 14); format: physicochemical; settings: Buffer B: 100 mM acetate buffer, pH 4.5, 2.7 mg/ml m-cresol; 3 mg/ml; 37° C. shaking
How it was run: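 Fibrillation tendency was judged from lag time and rise in Thioflavin T fluorescence, measured every 20 minutes over eight replicates per sample. Peptides at 3 mg/ml final were held at 37° C under cycles of 10 s shaking (960 rpm) and 50 s rest.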

[4] = 0% HSA, read-out: EC50 [nM], 0% HSA
[5] = 0.1% HSA, read-out: EC50 [nM], 0.1% HSA

Row | EC50 (rat CRF2R α receptor) [nM] | EC50 (human CRF2α receptor; [4]) [nM] | EC50 (human CRF2α receptor; [5]) [nM] | EC50 (endogenous human CRF2) [nM] | solubility at 1 h ([1]; pH 4.5, Solubility in Buffer B [mg/ml]) [mg/mL] | solubility at 1 h ([1]; pH 7.4, Solubility in Buffer C [mg/ml]) [mg/mL] | EC50 (CRF1R receptor) [nM] | Emax (CRF1R receptor) [%] | Relative purity loss [%] [2] [%] | Increase in FI (fluorescence intensity) [3] | Lag time [3] [h] | Structure (SMILES)
1 | 0.94 | 0.14 | 18.5 | 110 | 20.4 (≈ 3.97 mM) | > 9.6 | > 1000 | 23.3 |  |  |  | CC[C@H](C)[C@H](N)C(=O)N[C@H](C(=O)N[C@@H](CC(C)C)C(=O)N[C@@H](CO)C(=O)N[C@@H](CC(C)C)C(=O)N[C@@H](CC(=O)O)C(=O)N[C@H](C(=O)N1CCC[C@H]1C(=O)N[C@H](C(=O)N[C@@H](CCCCN)C(=O)N[C@@H](CC(C)C)C(=O)N[C@@H](CCCCNC(=O)COCCOCCNC(=O)COCCOCCNC(=O)CC[C@H](NC(=O)CCCCCCCCCCCCCCCCCCC(=O)O)C(=O)O)C(=O)N[C@@H](CCC(N)=O)C(=O)N[C@H](C(=O)N[C@@H](CC(C)C)C(=O)N[C@@H](CC(C)C)C(=O)N[C@@H](CCC(=O)O)C(=O)N[C@@H](CCC(N)=O)C(=O)N[C@@H](CCC(=O)O)C(=O)N[C@@H](CCCCN)C(=O)N[C@@H](CCC(N)=O)C(=O)N[C@@H](CCCCN)C(=O)NC(C)(C)C(=O)N[C@@H](CCC(N)=O)C(=O)N[C@@H](CCCNC(=N)N)C(=O)N[C@@H](CCC(=O)O)C(=O)N[C@@H](CCC(N)=O)C(=O)N[C@@H](C)C(=O)N[C@@H](CCC(=O)O)C(=O)N[C@H](C(=O)N[C@@H](CC(N)=O)C(=O)N[C@@H](CCCCN)C(=O)N[C@@H](CCC(N)=O)C(=O)N[C@H](C(=O)N[C@@H](CC(C)C)C(=O)N[C@@H](C)C(=O)N[C@@H](CCC(N)=O)C(=O)N[C@H](C(N)=O)C(C)C)[C@@H](C)CC)[C@@H](C)O)[C@@H](C)CC)[C@@H](C)CC)C(C)C)C(C)C [compound 81] (H-IVLSLDVPIKLK([AEEA-AEEA-γGlu-C20 diacid])QILLEQEKQK[Aib]QREQAETNKQILAQV-NH2)
2 | 0.13 | 0.05 | 2.11 | 4.3 |  |  | > 1000 | 20.3 | 4.25 | No | >45 | CC[C@H](C)[C@H](N)C(=O)N[C@H](C(=O)N[C@@H](CC(C)C)C(=O)N[C@@H](CO)C(=O)N[C@@H](CC(C)C)C(=O)N[C@@H](CC(=O)O)C(=O)N[C@@H](C(=O)N1CCC[C@H]1C(=O)N[C@H](C(=O)N[C@@H](CCCCN)C(=O)N[C@@H](CC(C)C)C(=O)N[C@@H](CCCCNC(=O)COCCOCCNC(=O)COCCOCCNC(=O)CC[C@H](NC(=O)CCCCCCCCCCCCCCCCC(=O)O)C(=O)O)C(=O)N[C@@H](CCC(N)=O)C(=O)N[C@H](C(=O)N[C@@H](CC(C)C)C(=O)N[C@@H](CC(C)C)C(=O)N[C@@H](CCCCN)C(=O)N[C@@H](CCC(N)=O)C(=O)N[C@@H](CCC(=O)O)C(=O)N[C@@H](CCCNC(=N)N)C(=O)N[C@@H](CCC(N)=O)C(=O)N[C@@H](CCCCN)C(=O)NC(C)(C)C(=O)N[C@@H](CCC(N)=O)C(=O)N[C@@H](CCCNC(=N)N)C(=O)N[C@@H](CCC(=O)O)C(=O)N[C@@H](CCC(N)=O)C(=O)N[C@@H](C)C(=O)N[C@@H](CCC(=O)O)C(=O)N[C@@H](CCCCN)C(=O)N[C@@H](CC(N)=O)C(=O)N[C@@H](CCCCN)C(=O)N[C@@H](CCC(N)=O)C(=O)N[C@H](C(=O)N[C@@H](CC(C)C)C(=O)N[C@@H](C)C(=O)N[C@@H](CCC(N)=O)C(=O)N[C@H](C(N)=O)C(C)C)[C@@H](C)CC)[C@@H](C)CC)[C@@H](C)CC)C(C)C)C(C)C [compound 130] (H-IVLSLD[dV]PIKLK([AEEA-AEEA-γGlu-C18 diacid])QILLKQERQK[Aib]QREQAEKNKQILAQV-NH2; N-terminus assumed)
